Source: article PMC3399817 (PLoS ONE, 2012)

Legend:
Test in all cases: KINOMEscan
Format in all cases: binding
LIMK1 = target: T1, LIMK1 (Homo sapiens, UniProt P53667); conditions: LIMK1, 1 uM
T1 construct: purchased Ambit KINOMEscan (DiscoverX)
Outline: (§1)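 A binding-competition profile was run with every compound fixed at 1 μM; hits were kinases showing inhibited substrate binding.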

PIK3C2G = target: T2, PIK3C2G (Homo sapiens, UniProt O75747); conditions: 1 uM
T2 construct: purchased Ambit KINOMEscan (DiscoverX)
Outline: as §1

WEE1 = target: T3, WEE1 (Homo sapiens, UniProt P30291); conditions: WEE1, 1 uM
T3 construct: purchased Ambit KINOMEscan (DiscoverX)
Outline: as §1

NIM1 = target: T4, NIM1 (Homo sapiens, UniProt Q8IY84); conditions: NIM1, 1 uM
T4 construct: purchased Ambit KINOMEscan (DiscoverX)
Outline: as §1

MAP3K4 = target: T5, MAP3K4 (Homo sapiens, UniProt Q9Y6R4); conditions: MAP3K4, 1 uM
T5 construct: purchased Ambit KINOMEscan (DiscoverX)
Outline: as §1

FAK = target: T6, FAK (Homo sapiens, UniProt Q05397); conditions: 1 uM
T6 construct: purchased Ambit KINOMEscan (DiscoverX)
Outline: as §1

MAK = target: T7, MAK (Homo sapiens, UniProt P20794); conditions: 1 uM
T7 construct: purchased Ambit KINOMEscan (DiscoverX)
Outline: as §1

FGFR4 = target: T8, FGFR4 (Homo sapiens, UniProt P22455); conditions: FGFR4, 1 uM
T8 construct: purchased Ambit KINOMEscan (DiscoverX)
Outline: as §1

MYO3B = target: T9, MYO3B (Homo sapiens, UniProt Q8WXR4); conditions: 1 uM
T9 construct: purchased Ambit KINOMEscan (DiscoverX)
Outline: as §1

BIKE = target: T10, BIKE (Homo sapiens, UniProt Q9NSY1); conditions: 1 uM
T10 construct: purchased Ambit KINOMEscan (DiscoverX)
Outline: as §1

CDC2L1 = target: T11, CDC2L1 (Homo sapiens, UniProt P21127); conditions: CDC2L1, 1 uM
T11 construct: purchased Ambit KINOMEscan (DiscoverX)
Outline: as §1

PKN1 = target: T12, PKN1 (Homo sapiens, UniProt Q16512); conditions: PKN1, 1 uM
T12 construct: purchased Ambit KINOMEscan (DiscoverX)
Outline: as §1

RIOK2 = target: T13, RIOK2 (Homo sapiens, UniProt Q9BVS4); conditions: RIOK2, 1 uM
T13 construct: purchased Ambit KINOMEscan (DiscoverX)
Outline: as §1

CAMK4 = target: T14, CAMK4 (Homo sapiens, UniProt Q16566); conditions: CAMK4, 1 uM
T14 construct: purchased Ambit KINOMEscan (DiscoverX)
Outline: as §1

TNIK = target: T15, TNIK (Homo sapiens, UniProt Q9UKE5); conditions: 1 uM
T15 construct: purchased Ambit KINOMEscan (DiscoverX)
Outline: as §1

TRKB = target: T16, TRKB (Homo sapiens, UniProt Q16620); conditions: 1 uM
T16 construct: purchased Ambit KINOMEscan (DiscoverX)
Outline: as §1

PIK4CB = target: T17, PIK4CB (Homo sapiens, UniProt Q9UBF8); conditions: 1 uM
T17 construct: purchased Ambit KINOMEscan (DiscoverX)
Outline: as §1

STK39 = target: T18, STK39 (Homo sapiens, UniProt Q9UEW8); conditions: STK39, 1 uM
T18 construct: purchased Ambit KINOMEscan (DiscoverX)
Outline: as §1

PHKG1 = target: T19, PHKG1 (Homo sapiens, UniProt Q16816); conditions: PHKG1, 1 uM
T19 construct: purchased Ambit KINOMEscan (DiscoverX)
Outline: as §1

DRAK1 = target: T20, DRAK1 (Homo sapiens, UniProt Q9UEE5); conditions: DRAK1, 1 uM
T20 construct: purchased Ambit KINOMEscan (DiscoverX)
Outline: as §1

[1] = target: T21, RPS6KA1(Kin.Dom.2-C-terminal) (Homo sapiens, UniProt Q15418); conditions: 1 uM
T21 construct: RPS6KA1(Kin.Dom.2-C-terminal); purchased Ambit KINOMEscan (DiscoverX)
Outline: as §1

ABL2 = target: T22, ABL2 (Homo sapiens, UniProt P42684); conditions: ABL2, 1 uM
T22 construct: purchased Ambit KINOMEscan (DiscoverX)
Outline: as §1

[2] = target: T23, JAK1(JH2domain-pseudokinase) (Homo sapiens, UniProt P23458); conditions: 1 uM
T23 construct: JAK1(JH2domain-pseudokinase); purchased Ambit KINOMEscan (DiscoverX)
Outline: as §1

IKK-epsilon = target: T24, IKK-epsilon (Homo sapiens, UniProt Q14164); conditions: 1 uM
T24 construct: purchased Ambit KINOMEscan (DiscoverX)
Outline: as §1

ERN1 = target: T25, ERN1 (Homo sapiens, UniProt O75460); conditions: ERN1, 1 uM
T25 construct: purchased Ambit KINOMEscan (DiscoverX)
Outline: as §1

PAK3 = target: T26, PAK3 (Homo sapiens, UniProt O75914); conditions: PAK3, 1 uM
T26 construct: purchased Ambit KINOMEscan (DiscoverX)
Outline: as §1

AURKC = target: T27, AURKC (Homo sapiens, UniProt Q9UQB9); conditions: 1 uM
T27 construct: purchased Ambit KINOMEscan (DiscoverX)
Outline: as §1

DYRK1B = target: T28, DYRK1B (Homo sapiens, UniProt Q9Y463); conditions: 1 uM
T28 construct: purchased Ambit KINOMEscan (DiscoverX)
Outline: as §1

ERBB2 = target: T29, ERBB2 (Homo sapiens, UniProt P04626); conditions: ERBB2, 1 uM
T29 construct: purchased Ambit KINOMEscan (DiscoverX)
Outline: as §1

MLK1 = target: T30, MLK1 (Homo sapiens, UniProt P80192); conditions: MLK1, 1 uM
T30 construct: purchased Ambit KINOMEscan (DiscoverX)
Outline: as §1

MAPKAPK5 = target: T31, MAPKAPK5 (Homo sapiens, UniProt Q8IW41); conditions: MAPKAPK5, 1 uM
T31 construct: purchased Ambit KINOMEscan (DiscoverX)
Outline: as §1

AAK1 = target: T32, AAK1 (Homo sapiens, UniProt Q2M2I8); conditions: AAK1, 1 uM
T32 construct: purchased Ambit KINOMEscan (DiscoverX)
Outline: as §1

PRKCH = target: T33, PRKCH (Homo sapiens, UniProt P24723); conditions: 1 uM
T33 construct: purchased Ambit KINOMEscan (DiscoverX)
Outline: as §1

TIE2 = target: T34, TIE2 (Homo sapiens, UniProt Q02763); conditions: TIE2, 1 uM
T34 construct: purchased Ambit KINOMEscan (DiscoverX)
Outline: as §1

PRKD3 = target: T35, PRKD3 (Homo sapiens, UniProt O94806); conditions: PRKD3, 1 uM
T35 construct: purchased Ambit KINOMEscan (DiscoverX)
Outline: as §1

INSRR = target: T36, INSRR (Homo sapiens, UniProt P14616); conditions: 1 uM
T36 construct: purchased Ambit KINOMEscan (DiscoverX)
Outline: as §1

CDKL5 = target: T37, CDKL5 (Homo sapiens, UniProt O76039); conditions: CDKL5, 1 uM
T37 construct: purchased Ambit KINOMEscan (DiscoverX)
Outline: as §1

DCAMKL1 = target: T38, DCAMKL1 (Homo sapiens, UniProt O15075); conditions: DCAMKL1, 1 uM
T38 construct: purchased Ambit KINOMEscan (DiscoverX)
Outline: as §1

ASK1 = target: T39, ASK1 (Homo sapiens, UniProt Q99683); conditions: ASK1, 1 uM
T39 construct: purchased Ambit KINOMEscan (DiscoverX)
Outline: as §1

T35 sequence (O94806 whole entry): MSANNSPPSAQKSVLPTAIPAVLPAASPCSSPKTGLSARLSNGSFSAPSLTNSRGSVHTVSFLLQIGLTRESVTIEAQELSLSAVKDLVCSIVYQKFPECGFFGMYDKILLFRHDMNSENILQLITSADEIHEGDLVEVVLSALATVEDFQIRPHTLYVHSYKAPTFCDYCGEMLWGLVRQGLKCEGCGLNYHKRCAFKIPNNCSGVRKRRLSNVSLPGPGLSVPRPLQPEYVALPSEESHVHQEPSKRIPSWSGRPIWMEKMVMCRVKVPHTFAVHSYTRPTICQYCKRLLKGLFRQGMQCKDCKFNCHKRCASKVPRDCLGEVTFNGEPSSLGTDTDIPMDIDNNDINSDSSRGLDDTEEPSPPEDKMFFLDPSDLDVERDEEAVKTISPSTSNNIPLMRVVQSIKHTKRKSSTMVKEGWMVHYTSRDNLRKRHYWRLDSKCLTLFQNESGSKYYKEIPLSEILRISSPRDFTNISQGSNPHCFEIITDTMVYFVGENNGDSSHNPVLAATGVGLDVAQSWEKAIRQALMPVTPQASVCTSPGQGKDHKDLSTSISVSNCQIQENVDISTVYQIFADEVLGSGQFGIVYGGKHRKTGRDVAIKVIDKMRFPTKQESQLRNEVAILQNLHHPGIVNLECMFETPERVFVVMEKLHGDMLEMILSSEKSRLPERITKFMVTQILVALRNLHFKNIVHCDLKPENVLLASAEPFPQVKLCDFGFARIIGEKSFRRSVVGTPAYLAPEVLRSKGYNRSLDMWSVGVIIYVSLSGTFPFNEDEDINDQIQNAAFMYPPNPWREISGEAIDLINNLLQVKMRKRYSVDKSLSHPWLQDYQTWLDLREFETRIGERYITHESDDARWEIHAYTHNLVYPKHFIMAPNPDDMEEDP
T22 sequence (P42684 whole entry): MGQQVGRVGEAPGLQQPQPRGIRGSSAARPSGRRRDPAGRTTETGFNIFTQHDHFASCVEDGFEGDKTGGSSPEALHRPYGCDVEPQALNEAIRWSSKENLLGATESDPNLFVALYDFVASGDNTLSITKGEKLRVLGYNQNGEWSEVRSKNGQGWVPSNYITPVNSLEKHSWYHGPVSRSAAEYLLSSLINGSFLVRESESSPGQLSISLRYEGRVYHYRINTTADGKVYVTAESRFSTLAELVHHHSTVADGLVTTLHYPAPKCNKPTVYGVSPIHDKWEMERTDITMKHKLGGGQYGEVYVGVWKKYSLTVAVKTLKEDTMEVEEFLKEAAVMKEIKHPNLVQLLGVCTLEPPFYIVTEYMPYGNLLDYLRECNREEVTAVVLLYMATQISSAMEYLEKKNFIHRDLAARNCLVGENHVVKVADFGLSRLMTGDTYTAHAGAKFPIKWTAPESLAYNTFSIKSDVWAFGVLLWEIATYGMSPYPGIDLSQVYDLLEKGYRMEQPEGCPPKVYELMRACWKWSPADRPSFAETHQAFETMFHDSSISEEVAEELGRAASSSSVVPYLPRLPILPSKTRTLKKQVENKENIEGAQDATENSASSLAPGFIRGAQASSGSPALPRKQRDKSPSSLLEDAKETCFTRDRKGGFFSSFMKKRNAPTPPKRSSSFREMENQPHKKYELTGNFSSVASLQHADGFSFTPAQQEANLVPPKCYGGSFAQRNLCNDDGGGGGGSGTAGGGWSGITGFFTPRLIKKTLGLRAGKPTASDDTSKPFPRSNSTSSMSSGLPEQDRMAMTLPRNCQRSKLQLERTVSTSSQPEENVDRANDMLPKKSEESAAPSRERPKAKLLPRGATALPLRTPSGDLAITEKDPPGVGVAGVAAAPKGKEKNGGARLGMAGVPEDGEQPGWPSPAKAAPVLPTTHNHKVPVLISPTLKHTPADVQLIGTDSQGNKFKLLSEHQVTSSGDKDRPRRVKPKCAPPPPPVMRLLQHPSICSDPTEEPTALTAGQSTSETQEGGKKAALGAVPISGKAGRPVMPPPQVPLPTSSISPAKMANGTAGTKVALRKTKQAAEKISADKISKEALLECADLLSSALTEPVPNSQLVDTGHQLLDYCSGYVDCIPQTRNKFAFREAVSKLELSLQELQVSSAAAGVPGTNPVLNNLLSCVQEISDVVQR
T9 sequence (Q8WXR4 whole entry): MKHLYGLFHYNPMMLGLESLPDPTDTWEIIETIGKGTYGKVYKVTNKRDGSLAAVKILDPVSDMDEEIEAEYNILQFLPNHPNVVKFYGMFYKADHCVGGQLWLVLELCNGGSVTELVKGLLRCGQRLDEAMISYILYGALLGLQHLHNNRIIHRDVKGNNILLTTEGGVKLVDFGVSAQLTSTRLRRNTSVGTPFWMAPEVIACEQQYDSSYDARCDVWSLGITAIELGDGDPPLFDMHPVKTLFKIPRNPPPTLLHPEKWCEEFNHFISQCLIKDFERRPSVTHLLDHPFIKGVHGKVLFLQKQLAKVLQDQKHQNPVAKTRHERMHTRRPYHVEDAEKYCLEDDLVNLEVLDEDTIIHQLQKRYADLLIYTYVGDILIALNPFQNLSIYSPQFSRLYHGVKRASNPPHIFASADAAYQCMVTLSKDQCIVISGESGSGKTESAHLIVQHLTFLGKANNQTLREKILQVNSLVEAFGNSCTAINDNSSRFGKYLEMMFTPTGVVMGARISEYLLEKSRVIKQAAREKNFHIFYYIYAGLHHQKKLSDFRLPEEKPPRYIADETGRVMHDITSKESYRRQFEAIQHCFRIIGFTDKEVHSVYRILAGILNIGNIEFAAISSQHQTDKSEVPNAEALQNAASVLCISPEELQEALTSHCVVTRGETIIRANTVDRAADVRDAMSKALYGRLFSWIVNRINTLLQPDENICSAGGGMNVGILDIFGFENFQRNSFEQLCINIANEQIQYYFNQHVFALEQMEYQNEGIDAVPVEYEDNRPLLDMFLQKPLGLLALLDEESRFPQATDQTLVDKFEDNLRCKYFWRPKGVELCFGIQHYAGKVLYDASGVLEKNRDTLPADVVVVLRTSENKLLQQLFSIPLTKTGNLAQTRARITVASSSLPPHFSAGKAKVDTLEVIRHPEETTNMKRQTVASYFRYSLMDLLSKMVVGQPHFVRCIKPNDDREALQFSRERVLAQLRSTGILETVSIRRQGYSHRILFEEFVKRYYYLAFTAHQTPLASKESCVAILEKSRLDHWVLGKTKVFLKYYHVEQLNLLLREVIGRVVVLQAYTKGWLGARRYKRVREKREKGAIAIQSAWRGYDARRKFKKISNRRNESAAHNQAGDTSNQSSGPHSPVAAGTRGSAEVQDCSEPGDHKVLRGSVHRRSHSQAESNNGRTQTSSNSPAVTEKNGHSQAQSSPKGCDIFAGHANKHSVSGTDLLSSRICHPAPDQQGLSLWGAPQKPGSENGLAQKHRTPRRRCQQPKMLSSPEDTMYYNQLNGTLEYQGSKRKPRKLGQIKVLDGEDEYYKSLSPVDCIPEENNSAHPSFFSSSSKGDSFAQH
T19 sequence (Q16816 whole entry): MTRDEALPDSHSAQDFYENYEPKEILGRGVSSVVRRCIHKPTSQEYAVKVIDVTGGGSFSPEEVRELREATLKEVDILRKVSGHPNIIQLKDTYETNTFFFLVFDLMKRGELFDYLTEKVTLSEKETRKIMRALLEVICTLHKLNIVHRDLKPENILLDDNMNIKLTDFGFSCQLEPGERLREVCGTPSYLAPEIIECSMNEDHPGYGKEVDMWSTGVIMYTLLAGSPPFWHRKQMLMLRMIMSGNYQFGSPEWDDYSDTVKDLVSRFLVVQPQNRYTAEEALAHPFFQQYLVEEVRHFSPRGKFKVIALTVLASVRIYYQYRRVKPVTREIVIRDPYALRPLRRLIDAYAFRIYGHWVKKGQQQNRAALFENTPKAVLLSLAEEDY
T17 sequence (Q9UBF8 whole entry): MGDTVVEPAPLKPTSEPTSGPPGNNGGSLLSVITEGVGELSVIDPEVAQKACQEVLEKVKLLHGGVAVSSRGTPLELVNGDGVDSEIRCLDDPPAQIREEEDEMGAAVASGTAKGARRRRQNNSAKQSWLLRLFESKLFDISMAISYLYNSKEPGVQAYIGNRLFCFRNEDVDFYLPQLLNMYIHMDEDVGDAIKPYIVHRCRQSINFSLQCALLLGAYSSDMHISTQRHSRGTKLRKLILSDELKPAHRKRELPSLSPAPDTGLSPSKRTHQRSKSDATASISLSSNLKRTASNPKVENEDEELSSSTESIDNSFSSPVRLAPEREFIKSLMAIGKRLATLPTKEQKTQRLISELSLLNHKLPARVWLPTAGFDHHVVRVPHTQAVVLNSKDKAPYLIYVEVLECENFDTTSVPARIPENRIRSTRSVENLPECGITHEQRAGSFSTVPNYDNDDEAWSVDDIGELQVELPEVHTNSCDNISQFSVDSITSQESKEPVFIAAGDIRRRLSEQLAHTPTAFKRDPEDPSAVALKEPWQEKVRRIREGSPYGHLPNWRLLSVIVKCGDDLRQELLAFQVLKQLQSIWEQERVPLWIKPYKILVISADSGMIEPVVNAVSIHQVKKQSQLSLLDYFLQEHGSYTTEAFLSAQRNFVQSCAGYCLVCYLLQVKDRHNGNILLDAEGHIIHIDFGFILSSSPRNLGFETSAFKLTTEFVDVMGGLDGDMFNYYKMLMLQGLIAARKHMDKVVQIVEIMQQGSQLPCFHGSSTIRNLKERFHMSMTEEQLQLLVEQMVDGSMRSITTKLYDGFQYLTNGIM
T20 sequence (Q9UEE5 whole entry): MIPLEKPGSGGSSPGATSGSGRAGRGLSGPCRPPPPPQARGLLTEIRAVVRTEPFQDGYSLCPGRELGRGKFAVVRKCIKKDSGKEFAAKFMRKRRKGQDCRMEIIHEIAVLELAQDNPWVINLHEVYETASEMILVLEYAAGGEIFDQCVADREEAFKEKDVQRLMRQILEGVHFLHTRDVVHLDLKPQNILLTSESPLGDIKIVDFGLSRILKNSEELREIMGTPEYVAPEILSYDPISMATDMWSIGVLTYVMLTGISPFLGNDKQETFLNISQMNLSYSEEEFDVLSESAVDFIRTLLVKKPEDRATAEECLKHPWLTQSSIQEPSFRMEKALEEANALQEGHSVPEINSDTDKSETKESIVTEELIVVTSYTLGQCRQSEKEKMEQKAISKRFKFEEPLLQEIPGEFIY

| Compound | % binding compared to no inhibitor control (LIMK1) [%] | % binding compared to no inhibitor control (PIK3C2G) [%] | % binding compared to no inhibitor control (WEE1) [%] | % binding compared to no inhibitor control (NIM1) [%] | % binding compared to no inhibitor control (MAP3K4) [%] | % binding compared to no inhibitor control (FAK) [%] | % binding compared to no inhibitor control (MAK) [%] | % binding compared to no inhibitor control (FGFR4) [%] | % binding compared to no inhibitor control (MYO3B) [%] | % binding compared to no inhibitor control (BIKE) [%] | % binding compared to no inhibitor control (CDC2L1) [%] | % binding compared to no inhibitor control (PKN1) [%] | % binding compared to no inhibitor control (RIOK2) [%] | % binding compared to no inhibitor control (CAMK4) [%] | % binding compared to no inhibitor control (TNIK) [%] | % binding compared to no inhibitor control (TRKB) [%] | % binding compared to no inhibitor control (PIK4CB) [%] | % binding compared to no inhibitor control (STK39) [%] | % binding compared to no inhibitor control (PHKG1) [%] | % binding compared to no inhibitor control (DRAK1) [%] | further results |
| --- | --- | --- | --- | --- | --- | --- | --- | --- | --- | --- | --- | --- | --- | --- | --- | --- | --- | --- | --- | --- | --- |
| COc1ccc(-c2cc3nccn3c(Nc3ncccc3C(N)=O)n2)cc1OC.Cl.Cl [BAY61-3606, 2-[7-(3,4-dimethoxyphenyl)-imidazo [1,2-c]pyrimidin-5-ylamino] nicotinamide dihydrochloride, reference compound] | 100 | 23 | 89 | 88 | 100 | 69 | 68 | 100 | 72 | 22 | 95 | 47 | 4 | 100 | 69 | 83 | 24 | 46 | 79 | 57 | % binding compared to no inhibitor control [1]: 50%; % binding compared to no inhibitor control (ABL2): 95%; % binding compared to no inhibitor control [2]: 80%; % binding compared to no inhibitor control (IKK-epsilon): 33%; % binding compared to no inhibitor control (ERN1): 72%; % binding compared to no inhibitor control (PAK3): 92%; % binding compared to no inhibitor control (AURKC): 92%; % binding compared to no inhibitor control (DYRK1B): 81%; % binding compared to no inhibitor control (ERBB2): 93%; % binding compared to no inhibitor control (MLK1): 100%; % binding compared to no inhibitor control (MAPKAPK5): 100%; % binding compared to no inhibitor control (AAK1): 1.6%; % binding compared to no inhibitor control (PRKCH): 58%; % binding compared to no inhibitor control (TIE2): 100%; % binding compared to no inhibitor control (PRKD3): 37%; % binding compared to no inhibitor control (INSRR): 80%; % binding compared to no inhibitor control (CDKL5): 60%; % binding compared to no inhibitor control (DCAMKL1): 93%; % binding compared to no inhibitor control (ASK1): 100% |
| COc1ccccc1Nc1nc(-c2ccc(OC)c(OC)c2)cc2nccn12 [BAY derivative 6] | 91 | 100 | 100 | 100 | 99 | 95 | 100 | 100 | 100 | 53 | 100 | 100 | 80 | 100 | 98 | 74 | 100 | 97 | 100 | 100 | % binding compared to no inhibitor control [1]: 100%; % binding compared to no inhibitor control (ABL2): 93%; % binding compared to no inhibitor control [2]: 1.2%; % binding compared to no inhibitor control (IKK-epsilon): 96%; % binding compared to no inhibitor control (ERN1): 100%; % binding compared to no inhibitor control (PAK3): 100%; % binding compared to no inhibitor control (AURKC): 100%; % binding compared to no inhibitor control (DYRK1B): 57%; % binding compared to no inhibitor control (ERBB2): 71%; % binding compared to no inhibitor control (MLK1): 100%; % binding compared to no inhibitor control (MAPKAPK5): 100%; % binding compared to no inhibitor control (AAK1): 52%; % binding compared to no inhibitor control (PRKCH): 100%; % binding compared to no inhibitor control (TIE2): 100%; % binding compared to no inhibitor control (PRKD3): 100%; % binding compared to no inhibitor control (INSRR): 91%; % binding compared to no inhibitor control (CDKL5): 100%; % binding compared to no inhibitor control (DCAMKL1): 87%; % binding compared to no inhibitor control (ASK1): 100% |
